Entries after “also recorded” stand apart in the source; their conditions may differ. Counter-ions that a name gives are not always drawn. Like-named read-outs stand apart in the source and are kept apart here.
Columns and labels:
[1] = molecular target: T1, recombinant human arginase 2 (Homo sapiens, UniProt P78540); experiment: Arginase 2 inhibition, UPLC-MS measurement of ARG to ORN conversion in HEK293T cell lysate; details: for % of control activity at the corresponding [Inhibitor] ± SE: arginase 2; for % of control activity at the corresponding [Inhibitor] ± SE / remaining activity at 1 µM / remaining activity at 10 µM / remaining activity at 100 µM / remaining activity at 1000 µM / remaining activity at 10000 µM / remaining activity at 0.1 µM: mean of two experiments; for arginase 2 inhibitor assessment in words: at the concentrations tested; for remaining activity at 1 µM / remaining activity at 10 µM / remaining activity at 100 µM / remaining activity at 1000 µM / remaining activity at 10000 µM / remaining activity at 0.1 µM: read-out: % of control activity at the corresponding [Inhibitor] ± SE, arginase 2; for remaining activity at 10000 µM: inhibitor 10,000 µM;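 on all read-outs here: HEK293T lysate carrying arginase 2 at 0.1 mg/mL in 0.05 M phosphate buffer pH 7.4, inhibitor preincubated with enzyme 5 min before ARG addition started the reaction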
T1 sequence (P78540 23-354): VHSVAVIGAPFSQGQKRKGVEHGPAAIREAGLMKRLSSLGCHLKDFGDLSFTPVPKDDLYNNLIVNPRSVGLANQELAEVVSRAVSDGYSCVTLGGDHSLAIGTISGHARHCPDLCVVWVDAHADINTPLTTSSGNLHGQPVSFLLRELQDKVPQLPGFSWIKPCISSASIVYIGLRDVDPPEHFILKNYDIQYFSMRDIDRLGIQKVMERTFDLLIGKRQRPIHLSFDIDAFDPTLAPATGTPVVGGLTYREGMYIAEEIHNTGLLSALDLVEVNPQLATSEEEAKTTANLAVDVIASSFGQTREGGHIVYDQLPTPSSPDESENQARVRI
Procedure: (§1) Following a 5-min pre-equilibration period reactions were initiated by the addition of the cell lysate solution in 0.05 M phosphate buffer to a pre-equilibrated aqueous solution of the substrate (ARG).
(§2) The samples were vortex mixed (20 sec) and cooled in an ice/water bath for 10 min prior to centrifugation (5 min, 18,000 × g, room temperature) to precipitate the proteins. An aliquot of the supernatant layer was diluted with a 7:3 mobile phase A/mobile phase B solution into glass UPLC vial inserts.
(§3) Incubation mixtures comprised of HEK293T cell lysate expressing arginase 1 (0.05 mg/mL) or arginase 2 (0.1 mg/mL), phosphate buffer (0.05 M, pH 7.4), inhibitor (0, 0.1, 1, 10, 100, 1000 or 10000 μM) and ARG (0.1, 2 or 3 mM). Following a 5-min pre-incubation of the potential inhibitor with arginase 1 or arginase 2, reactions were initiated by the addition of a pre-equilibrated solution of the substrate ARG.
Sample were diluted 3:17 in mobile phase solution prior injection.

[2] = molecular target: T2, recombinant human arginase 1 (Homo sapiens, UniProt P05089); experiment: Arginase 1 inhibition, UPLC-MS measurement of ARG to ORN conversion in HEK293T cell lysate; details: for % of control activity at the corresponding [Inhibitor] ± SE: arginase 1; for % of control activity at the corresponding [Inhibitor] ± SE / remaining activity at 1 µM / remaining activity at 10 µM / remaining activity at 100 µM / remaining activity at 1000 µM / remaining activity at 10000 µM / remaining activity at 0.1 µM: mean of two experiments; for arginase 1 inhibitor assessment in words: at the concentrations tested, both ARG concentrations; for remaining activity at 1 µM / remaining activity at 10 µM / remaining activity at 100 µM / remaining activity at 1000 µM / remaining activity at 10000 µM / remaining activity at 0.1 µM: read-out: % of control activity at the corresponding [Inhibitor] ± SE, arginase 1; for remaining activity at 10000 µM: inhibitor 10,000 µM;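 on all read-outs here: arginase 1–expressing HEK293T lysate at 0.05 mg/mL in pH 7.4 phosphate buffer, inhibitor preincubated 5 min with enzyme, then reaction started by adding ARG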
T2 sequence (P05089 1-322): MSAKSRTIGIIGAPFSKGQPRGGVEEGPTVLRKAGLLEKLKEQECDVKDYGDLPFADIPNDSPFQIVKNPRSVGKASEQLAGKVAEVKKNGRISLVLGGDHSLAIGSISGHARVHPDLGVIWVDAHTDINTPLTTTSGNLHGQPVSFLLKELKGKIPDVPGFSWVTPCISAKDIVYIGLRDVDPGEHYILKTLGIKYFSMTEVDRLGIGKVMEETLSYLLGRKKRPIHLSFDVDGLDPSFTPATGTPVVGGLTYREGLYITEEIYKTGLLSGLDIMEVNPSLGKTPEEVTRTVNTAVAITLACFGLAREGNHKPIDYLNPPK
Procedure: as §1, §2, §3
Ki values were derived from fitting the competitive inhibition equation to experimental data. Ki data are the mean of three singlicate experiments.

[3] = molecular target: T2, recombinant human arginase 1; experiment: Arginase 1 activity assay, kinetics of ARG conversion to ORN; assay type: biochemical; details: absence vs 0.5 mM manganese chloride
Procedure: Incubation mixtures contained HEK293T cell lysate expressing recombinant human arginase 1 (0.05 mg/mL) or arginase 2 (0.1 mg/mL), phosphate buffer (0.05 M, pH 7.4) and ARG (0 to 15 mM).
as §1, §2
Kinetic data are the mean of three singlicate experiments.

SMILES	% of control activity at the corresponding [Inhibitor] ± SE ([1]; ARG 100 µM, inhibitor 0.1 µM) [%]	% of control activity at the corresponding [Inhibitor] ± SE ([1]; ARG 100 µM, inhibitor 1 µM) [%]	arginase 2 inhibitor assessment in words [1]	arginase 1 inhibitor assessment in words [2]	remaining activity at 1 µM ([1]; ARG 100 µM, inhibitor 1 µM) [%]	remaining activity at 10 µM ([1]; ARG 100 µM, inhibitor 10 µM) [%]	remaining activity at 100 µM ([1]; ARG 100 µM, inhibitor 100 µM) [%]	remaining activity at 1000 µM ([1]; ARG 100 µM, inhibitor 1,000 µM) [%]	remaining activity at 1 µM ([1]; ARG 2 mM, inhibitor 1 µM) [%]	remaining activity at 10 µM ([1]; ARG 2 mM, inhibitor 10 µM) [%]	remaining activity at 100 µM ([1]; ARG 2 mM, inhibitor 100 µM) [%]	remaining activity at 1000 µM ([1]; ARG 2 mM, inhibitor 1,000 µM) [%]	remaining activity at 1 µM ([2]; ARG 100 µM, inhibitor 1 µM) [%]	remaining activity at 10 µM ([2]; ARG 100 µM, inhibitor 10 µM) [%]	remaining activity at 100 µM ([2]; ARG 100 µM, inhibitor 100 µM) [%]	remaining activity at 1000 µM ([2]; ARG 100 µM, inhibitor 1,000 µM) [%]	remaining activity at 1 µM ([2]; ARG 3 mM, inhibitor 1 µM) [%]	remaining activity at 10 µM ([2]; ARG 3 mM, inhibitor 10 µM) [%]	remaining activity at 100 µM ([2]; ARG 3 mM, inhibitor 100 µM) [%]	remaining activity at 1000 µM ([2]; ARG 3 mM, inhibitor 1,000 µM) [%]	further results
CN(C)C(N)=NCCC[C@H](N)C(=O)O [ADMA, asymmetric dimethylarginine]	115 ± 7	112 ± 13	poor arginase inhibitors	poor arginase 1 inhibitors																	% of control activity at the corresponding [Inhibitor] ± SE ([1]; ARG 100 µM, inhibitor 10 µM): 109 ± 9%; % of control activity at the corresponding [Inhibitor] ± SE ([1]; ARG 100 µM, inhibitor 100 µM): 94 ± 14%; % of control activity at the corresponding [Inhibitor] ± SE ([1]; ARG 100 µM, inhibitor 1,000 µM): 104 ± 3%; % of control activity at the corresponding [Inhibitor] ± SE ([1]; ARG 2 mM, inhibitor 0.1 µM): 80 ± 7%; % of control activity at the corresponding [Inhibitor] ± SE ([1]; ARG 2 mM, inhibitor 1 µM): 84 ± 12%; % of control activity at the corresponding [Inhibitor] ± SE ([1]; ARG 2 mM, inhibitor 10 µM): 92 ± 12%; % of control activity at the corresponding [Inhibitor] ± SE ([1]; ARG 2 mM, inhibitor 100 µM): 90 ± 14%; % of control activity at the corresponding [Inhibitor] ± SE ([1]; ARG 2 mM, inhibitor 1,000 µM): 87 ± 15%; % of control activity at the corresponding [Inhibitor] ± SE ([2]; ARG 100 µM, inhibitor 0.1 µM): 102 ± 9%; % of control activity at the corresponding [Inhibitor] ± SE ([2]; ARG 100 µM, inhibitor 1 µM): 109 ± 4%; % of control activity at the corresponding [Inhibitor] ± SE ([2]; ARG 100 µM, inhibitor 10 µM): 120 ± 12%; % of control activity at the corresponding [Inhibitor] ± SE ([2]; ARG 100 µM, inhibitor 100 µM): 109 ± 8%; % of control activity at the corresponding [Inhibitor] ± SE ([2]; ARG 100 µM, inhibitor 1,000 µM): 87 ± 1%; % of control activity at the corresponding [Inhibitor] ± SE ([2]; ARG 3 mM, inhibitor 0.1 µM): 98 ± 7%; % of control activity at the corresponding [Inhibitor] ± SE ([2]; ARG 3 mM, inhibitor 1 µM): 89 ± 2%; % of control activity at the corresponding [Inhibitor] ± SE ([2]; ARG 3 mM, inhibitor 10 µM): 90 ± 1%; % of control activity at the corresponding [Inhibitor] ± SE ([2]; ARG 3 mM, inhibitor 100 µM): 86 ± 4%; % of control activity at the corresponding [Inhibitor] ± SE ([2]; ARG 3 mM, inhibitor 1,000 µM): 69 ± 4%
NCCCCN=C(N)N [AG, agmatine]			poor inhibitors; also recorded: no significant inhibition	poor arginase 1 inhibitors; also recorded: no significant inhibition	103 ± 4	98 ± 7	92 ± 6	78 ± 5	104 ± 4	96 ± 3	103 ± 3	96 ± 3	94 ± 7	82 ± 5	110 ± 24	84 ± 8	84 ± 13	100 ± 3	100 ± 8	98 ± 13	remaining activity at 10000 µM ([1]; ARG 100 µM): 58 ± 1%; remaining activity at 10000 µM ([1]; ARG 2 mM): 87 ± 8%; remaining activity at 10000 µM ([2]; ARG 100 µM): 72 ± 3%; remaining activity at 10000 µM ([2]; ARG 3 mM): 78 ± 7%
[H]/N=C(/NC)NCCC[C@H](N)C(=O)O [L-NMMA, NG-Monomethyl-L-arginine]					103 ± 2	106 ± 1	106 ± 9	111 ± 4	105 ± 4	109 ± 8	104 ± 3	118 ± 4	91 ± 6	104 ± 11	95 ± 6	116 ± 1	107 ± 11	95 ± 9	94 ± 8	97 ± 11	remaining activity at 0.1 µM ([1]; ARG 100 µM, inhibitor 0.1 µM): 101 ± 1%; remaining activity at 0.1 µM ([1]; ARG 2 mM, inhibitor 0.1 µM): 96 ± 7%; remaining activity at 0.1 µM ([2]; ARG 100 µM, inhibitor 0.1 µM): 95 ± 2%; remaining activity at 0.1 µM ([2]; ARG 3 mM, inhibitor 0.1 µM): 106 ± 15%
O=C(O)[C@@H]1CCCN1 [PRO, proline]			poor inhibitors; also recorded: no significant inhibition	poor arginase 1 inhibitors; also recorded: no significant inhibition	92 ± 10	99 ± 1	99 ± 2	92 ± 7	98 ± 1	97 ± 7	96 ± 12	98 ± 10	115 ± 1	110 ± 1	110 ± 6	104 ± 3	100 ± 1	113 ± 26	106 ± 19	100 ± 17	remaining activity at 10000 µM ([1]; ARG 100 µM): 77 ± 16%; remaining activity at 10000 µM ([1]; ARG 2 mM): 75 ± 8%; remaining activity at 10000 µM ([2]; ARG 100 µM): 54 ± 7%; remaining activity at 10000 µM ([2]; ARG 3 mM): 79 ± 20%
CN=C(NC)NCCC[C@H](N)C(=O)O [SDMA, NG, N′G-dimethyl-L-arginine dihydrochloride]	90 ± 2	96 ± 1	poor arginase inhibitors	poor arginase 1 inhibitors																	% of control activity at the corresponding [Inhibitor] ± SE ([1]; ARG 100 µM, inhibitor 10 µM): 95 ± 3%; % of control activity at the corresponding [Inhibitor] ± SE ([1]; ARG 100 µM, inhibitor 100 µM): 90 ± 1%; % of control activity at the corresponding [Inhibitor] ± SE ([1]; ARG 100 µM, inhibitor 1,000 µM): 89 ± 1%; % of control activity at the corresponding [Inhibitor] ± SE ([1]; ARG 2 mM, inhibitor 0.1 µM): 96 ± 2%; % of control activity at the corresponding [Inhibitor] ± SE ([1]; ARG 2 mM, inhibitor 1 µM): 100 ± 3%; % of control activity at the corresponding [Inhibitor] ± SE ([1]; ARG 2 mM, inhibitor 10 µM): 107 ± 1%; % of control activity at the corresponding [Inhibitor] ± SE ([1]; ARG 2 mM, inhibitor 100 µM): 102 ± 1%; % of control activity at the corresponding [Inhibitor] ± SE ([1]; ARG 2 mM, inhibitor 1,000 µM): 96 ± 1%; % of control activity at the corresponding [Inhibitor] ± SE ([2]; ARG 100 µM, inhibitor 0.1 µM): 96 ± 3%; % of control activity at the corresponding [Inhibitor] ± SE ([2]; ARG 100 µM, inhibitor 1 µM): 113 ± 22%; % of control activity at the corresponding [Inhibitor] ± SE ([2]; ARG 100 µM, inhibitor 10 µM): 104 ± 4%; % of control activity at the corresponding [Inhibitor] ± SE ([2]; ARG 100 µM, inhibitor 100 µM): 106 ± 17%; % of control activity at the corresponding [Inhibitor] ± SE ([2]; ARG 100 µM, inhibitor 1,000 µM): 69 ± 10%; % of control activity at the corresponding [Inhibitor] ± SE ([2]; ARG 3 mM, inhibitor 0.1 µM): 113 ± 16%; % of control activity at the corresponding [Inhibitor] ± SE ([2]; ARG 3 mM, inhibitor 1 µM): 93 ± 5%; % of control activity at the corresponding [Inhibitor] ± SE ([2]; ARG 3 mM, inhibitor 10 µM): 92 ± 2%; % of control activity at the corresponding [Inhibitor] ± SE ([2]; ARG 3 mM, inhibitor 100 µM): 84 ± 1%; % of control activity at the corresponding [Inhibitor] ± SE ([2]; ARG 3 mM, inhibitor 1,000 µM): 73 ± 5%
[Cl][Mn][Cl] [manganese chloride]																					rate of ORN formation higher in absence of manganese supplementation [3]: 20%

Source: paper PMC5829263, “Homoarginine and inhibition of human arginase activity: kinetic characterization and biological relevance” (Scientific Reports, 2018)
